Results: the supplement of paper PMC11451515

Experiments:
Details in all cases: 48 h
P12-Ichikawa [1] = assay: AUC of viability dose-response curve (% viability x log10 dose units); higher = less sensitive
Outline: (§1)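 Area under the curve was integrated by trapezoidal rule from a log-logistic fit of normalised viability, with curves exceeding full viability scaled and quality-control failures removed. The fit had four parameters over log10 doses. Viability came from CellTiter-Glo One luminescence, normalised per plate to DMSO and cell-free wells, after leukemia cells adapted to each medium (500 or 1000 cells/well, 1536-well plates) were exposed to library compounds in DMSO for 48 h at 37°C. The 11 threefold doses ran from 47 μM to 0.79 nM.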

NOMO1 [2] = assay: as above
Outline: as §1

SEM cells [3] = assay: as above
Outline: as §1

P12-Ichikawa [4] = assay: cell viability relative to DMSO control; higher = less cytotoxic
Outline: (§2)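 NOMO1 or SEM cells were plated at 500 cells/well and P12-Ichikawa cells at 1000 cells/well in 1536-well plates (5 μl), after each leukemia line had been adapted for at least four passages in each medium. Pin dosing delivered library compounds in DMSO at 11 threefold concentrations, 47 μM to 0.79 nM. CellTiter-Glo One luminescence was read after 48 h at 37°C. Viability is reported as a per-plate percentage of DMSO wells, with cell-free wells as background.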

NOMO1 [5] = assay: as above
Outline: as §2

SEM cells [6] = assay: as above
Outline: as §2

CCN(C(=O)C/1=C(O)/C2=C(C=CC=C2Cl)N(C)C1=O)C3=CC=CC=C3
AUC of viability dose-response curve
Details	NOMO1 [2]	P12-Ichikawa [1]	SEM cells [3]
HPLM + 10% dialyzed FBS	319	356	272
RPMI 5 mM glucose + 10% FBS	306	322	258
RPMI 5 mM glucose + 10% dialyzed FBS	328	308	250

cell viability [%]
Details	NOMO1 [5]	P12-Ichikawa [4]	SEM cells [6]
HPLM + 10% dialyzed FBS, 0.000781 µM	95	93.7	79.9
HPLM + 10% dialyzed FBS, 0.00234 µM	106	100	92.1
HPLM + 10% dialyzed FBS, 0.00702 µM	97.6	98.1	99.3
HPLM + 10% dialyzed FBS, 0.0211 µM	99.3	102	93.5
HPLM + 10% dialyzed FBS, 0.0632 µM	87.4	97.9	84.6
HPLM + 10% dialyzed FBS, 0.19 µM	84	93.2	61.8
HPLM + 10% dialyzed FBS, 0.569 µM	96.6	95.9	62
HPLM + 10% dialyzed FBS, 1.71 µM	34.9	77.6	25.8
HPLM + 10% dialyzed FBS, 5.12 µM	12.5	31.8	9.79
HPLM + 10% dialyzed FBS, 15.4 µM	3.29	2.09	3.62
HPLM + 10% dialyzed FBS, 46.1 µM	3.67	3.36	3.31
RPMI 5 mM glucose + 10% FBS, 0.000781 µM	80.5	90.3	88.2
RPMI 5 mM glucose + 10% FBS, 0.00234 µM	88.8	97	90.7
RPMI 5 mM glucose + 10% FBS, 0.00702 µM	93.4	98.7	99.6
RPMI 5 mM glucose + 10% FBS, 0.0211 µM	93.8	105	97.6
RPMI 5 mM glucose + 10% FBS, 0.0632 µM	96	88.8	89.5
RPMI 5 mM glucose + 10% FBS, 0.19 µM	81	77.5	43
RPMI 5 mM glucose + 10% FBS, 0.569 µM	90.6	82.7	53.8
RPMI 5 mM glucose + 10% FBS, 1.71 µM	43.7	52.7	14.4
RPMI 5 mM glucose + 10% FBS, 5.12 µM	15.8	25.4	5.29
RPMI 5 mM glucose + 10% FBS, 15.4 µM	2.47	1.95	3.41
RPMI 5 mM glucose + 10% FBS, 46.1 µM	2.24	2.3	3.37
RPMI 5 mM glucose + 10% dialyzed FBS, 0.000781 µM	96.2	85.2	93.1
RPMI 5 mM glucose + 10% dialyzed FBS, 0.00234 µM	89	91.3	80.1
RPMI 5 mM glucose + 10% dialyzed FBS, 0.00702 µM	94	91.5	85.4
RPMI 5 mM glucose + 10% dialyzed FBS, 0.0211 µM	97.2	96.4	97.8
RPMI 5 mM glucose + 10% dialyzed FBS, 0.0632 µM	103	99.6	80.2
RPMI 5 mM glucose + 10% dialyzed FBS, 0.19 µM	83.8	78.5	42.8
RPMI 5 mM glucose + 10% dialyzed FBS, 0.569 µM	91.9	82.8	49.6
RPMI 5 mM glucose + 10% dialyzed FBS, 1.71 µM	53.5	46.1	26.9
RPMI 5 mM glucose + 10% dialyzed FBS, 5.12 µM	22	16.3	6.32
RPMI 5 mM glucose + 10% dialyzed FBS, 15.4 µM	2.48	2.21	3.84
RPMI 5 mM glucose + 10% dialyzed FBS, 46.1 µM	2.14	3.11	3.31

C[C@]12CC[C@H]3[C@@H](CCC/4=C/C(=O)CC[C@]34C)[C@@H]1CC[C@@H]2O
AUC of viability dose-response curve
Details	NOMO1 [2]	P12-Ichikawa [1]	SEM cells [3]
HPLM + 10% dialyzed FBS	463	468	467
RPMI 5 mM glucose + 10% FBS	460	467	450
RPMI 5 mM glucose + 10% dialyzed FBS	462	470	444

cell viability [%]
Details	NOMO1 [5]	P12-Ichikawa [4]	SEM cells [6]
HPLM + 10% dialyzed FBS, 0.000781 µM	93.4	111	94.2
HPLM + 10% dialyzed FBS, 0.00234 µM	113	121	120
HPLM + 10% dialyzed FBS, 0.00702 µM	126	121	124
HPLM + 10% dialyzed FBS, 0.0211 µM	111	126	128
HPLM + 10% dialyzed FBS, 0.0632 µM	136	128	118
HPLM + 10% dialyzed FBS, 0.19 µM	126	124	139
HPLM + 10% dialyzed FBS, 0.569 µM	123	128	122
HPLM + 10% dialyzed FBS, 1.71 µM	111	132	120
HPLM + 10% dialyzed FBS, 5.12 µM	130	126	136
HPLM + 10% dialyzed FBS, 15.4 µM	127	125	125
HPLM + 10% dialyzed FBS, 46.1 µM	137	127	130
RPMI 5 mM glucose + 10% FBS, 0.000781 µM	109	–	107
RPMI 5 mM glucose + 10% FBS, 0.00234 µM	118	–	110
RPMI 5 mM glucose + 10% FBS, 0.00702 µM	134	–	118
RPMI 5 mM glucose + 10% FBS, 0.0211 µM	143	–	112
RPMI 5 mM glucose + 10% FBS, 0.0632 µM	146	–	139
RPMI 5 mM glucose + 10% FBS, 0.19 µM	145	–	129
RPMI 5 mM glucose + 10% FBS, 0.569 µM	129	–	118
RPMI 5 mM glucose + 10% FBS, 1.71 µM	134	–	133
RPMI 5 mM glucose + 10% FBS, 5.12 µM	147	–	140
RPMI 5 mM glucose + 10% FBS, 15.4 µM	153	–	157
RPMI 5 mM glucose + 10% FBS, 46.1 µM	147	–	109
RPMI 5 mM glucose + 10% dialyzed FBS, 0.000781 µM	107	–	129
RPMI 5 mM glucose + 10% dialyzed FBS, 0.00234 µM	121	–	113
RPMI 5 mM glucose + 10% dialyzed FBS, 0.00702 µM	135	–	120
RPMI 5 mM glucose + 10% dialyzed FBS, 0.0211 µM	137	–	121
RPMI 5 mM glucose + 10% dialyzed FBS, 0.0632 µM	142	–	112
RPMI 5 mM glucose + 10% dialyzed FBS, 0.19 µM	141	–	130
RPMI 5 mM glucose + 10% dialyzed FBS, 0.569 µM	147	–	153
RPMI 5 mM glucose + 10% dialyzed FBS, 1.71 µM	129	–	134
RPMI 5 mM glucose + 10% dialyzed FBS, 5.12 µM	145	–	130
RPMI 5 mM glucose + 10% dialyzed FBS, 15.4 µM	138	–	131
RPMI 5 mM glucose + 10% dialyzed FBS, 46.1 µM	143	–	145
